According to ChEMBL document CHEMBL4251684, “Trichodermides A-E: New Peptaibols Isolated from the Australian Termite Nest-Derived Fungus Trichoderma virens CMB-TN16” (J Nat Prod, 2018):
Active and inactive are the calls of the source. The calls are words filed in the database; no cut-off is given here.

Tests used:
Bacillus subtilis = test: Antimicrobial activity against Bacillus subtilis ATCC 6051 after 24 hrs by spectrophotometric method; format: functional, organism-based
Escherichia coli = test: Antimicrobial activity against Escherichia coli ATCC 11775 after 24 hrs by spectrophotometric method; format: functional, organism-based; conditions: DSM 30083 = JCM 1649 = ATCC 11775
Pichia kudriavzevii = test: Antimicrobial activity against Candida krusei ATCC 6258 after 24 hrs by spectrophotometric method; format: functional, organism-based
Pseudomonas aeruginosa = test: Antimicrobial activity against Pseudomonas aeruginosa ATCC 10145 after 24 hrs by spectrophotometric method; format: functional, organism-based
SW-620 = test: Cytotoxicity against human SW620 cells assessed as inhibition of cell growth after 48 hrs by MTT assay; format: cell-based; conditions: SW-620, 48 h
Candida albicans = test: Antimicrobial activity against Candida albicans ATCC 10231 after 24 hrs by spectrophotometric method; format: functional, organism-based
Candida parapsilosis = test: Antimicrobial activity against Candida parapsilosis ATCC 22019 after 24 hrs by spectrophotometric method; format: functional, organism-based
NCI-H460 = test: Cytotoxicity against human NCI-H460 cells assessed as inhibition of cell growth after 48 hrs by MTT assay; format: cell-based; conditions: NCI-H460, 48 h
Staphylococcus aureus = test: Antimicrobial activity against Staphylococcus aureus ATCC 25923 after 24 hrs by spectrophotometric method; format: functional, organism-based

CC[C@@H](C)[C@H](NC(=O)[C@H](CCC(N)=O)NC(=O)C(C)(C)NC(C)=O)C(=O)N[C@H](C(=O)NC(C)(C)C(=O)N1CCC[C@H]1C(=O)N[C@H](C(=O)N[C@@H](CC(C)C)C(=O)NC(C)(C)C(=O)N1CCC[C@H]1C(=O)N[C@H](CO)C(C)C)[C@@H](C)CC)C(C)C
Activity (Bacillus subtilis): inactive
Activity (Escherichia coli): inactive
Activity (Pichia kudriavzevii): inactive
Activity (Pseudomonas aeruginosa): inactive
IC50 (SW-620): > 30 µM
Activity (Candida albicans): inactive
Activity (Candida parapsilosis): inactive
IC50 (NCI-H460): > 30 µM
Activity (Staphylococcus aureus): inactive

CC[C@@H](C)[C@H](NC(=O)[C@H](CCC(N)=O)NC(=O)C(C)(C)NC(C)=O)C(=O)N[C@H](C(=O)NC(C)(C)C(=O)N1CCC[C@H]1C(=O)N[C@H](C(=O)N[C@@H](CC(C)C)C(=O)NC(C)(C)C(=O)N1CCC[C@H]1C(=O)N[C@H](CO)CC(C)C)[C@@H](C)CC)C(C)C
Activity (Bacillus subtilis): inactive
Activity (Escherichia coli): inactive
Activity (Pichia kudriavzevii): inactive
Activity (Pseudomonas aeruginosa): inactive
IC50 (SW-620): > 30 µM
Activity (Candida albicans): inactive
Activity (Candida parapsilosis): inactive
IC50 (NCI-H460): > 30 µM
Activity (Staphylococcus aureus): inactive

CC[C@@H](C)[C@H](NC(=O)[C@H](CCC(N)=O)NC(=O)[C@@](C)(CC)NC(C)=O)C(=O)N[C@H](C(=O)NC(C)(C)C(=O)N1CCC[C@H]1C(=O)N[C@H](C(=O)N[C@@H](CC(C)C)C(=O)NC(C)(C)C(=O)N1CCC[C@H]1C(=O)N[C@H](CO)CC(C)C)[C@@H](C)CC)C(C)C
Activity (Bacillus subtilis): inactive
Activity (Escherichia coli): inactive
Activity (Pichia kudriavzevii): inactive
Activity (Pseudomonas aeruginosa): inactive
IC50 (SW-620): 12.8 µM
Activity (Candida albicans): inactive
Activity (Candida parapsilosis): inactive
IC50 (NCI-H460): 10.9 µM
Activity (Staphylococcus aureus): inactive

CC[C@@H](C)[C@H](NC(=O)[C@H](CCC(N)=O)NC(=O)[C@@](C)(CC)NC(C)=O)C(=O)N[C@H](C(=O)NC(C)(C)C(=O)N1CCC[C@H]1C(=O)N[C@H](C(=O)N[C@@H](CC(C)C)C(=O)NC(C)(C)C(=O)N1CCC[C@H]1C(=O)N[C@H](CO)C(C)C)[C@@H](C)CC)C(C)C
Activity (Bacillus subtilis): inactive
Activity (Escherichia coli): inactive
Activity (Pichia kudriavzevii): inactive
Activity (Pseudomonas aeruginosa): inactive
IC50 (SW-620): 18.9 µM
Activity (Candida albicans): inactive
Activity (Candida parapsilosis): inactive
IC50 (NCI-H460): 19.3 µM
Activity (Staphylococcus aureus): inactive

CC[C@H](C)[C@H](NC(=O)[C@@H]1CCCN1C(=O)C(C)(C)NC(=O)[C@@H](NC(=O)[C@@H](NC(=O)[C@H](CCC(N)=O)NC(=O)[C@@](C)(CC)NC(C)=O)C(C)C)C(C)C)C(=O)N[C@@H](CC(C)C)C(=O)NC(C)(C)C(=O)N1CCC[C@H]1C(=O)N[C@H](CO)C(C)C
Activity (Bacillus subtilis): inactive
Activity (Escherichia coli): inactive
Activity (Pichia kudriavzevii): inactive
Activity (Pseudomonas aeruginosa): inactive
IC50 (SW-620): 27.5 µM
Activity (Candida albicans): inactive
Activity (Candida parapsilosis): inactive
IC50 (NCI-H460): > 30 µM
Activity (Staphylococcus aureus): inactive
